As usually defined, the IC50 is the concentration that inhibits the measured activity by half.

35 compounds from US20230078764A1 (Yumanity Therapeutics, Inc., priority 2019, published 2023) can be followed below.

Each structure is given as a SMILES string. Bounds are passed on as bounds.

One test has as its target T1, human SCD1 (Homo sapiens, UniProt O00767).
T1 construct: expressed in transfected cells; host or cells: yeast strain with OLE1 deleted, plasmid-borne human SCD1 (selected in SD-Ura)
T1 sequence (O00767 1-359): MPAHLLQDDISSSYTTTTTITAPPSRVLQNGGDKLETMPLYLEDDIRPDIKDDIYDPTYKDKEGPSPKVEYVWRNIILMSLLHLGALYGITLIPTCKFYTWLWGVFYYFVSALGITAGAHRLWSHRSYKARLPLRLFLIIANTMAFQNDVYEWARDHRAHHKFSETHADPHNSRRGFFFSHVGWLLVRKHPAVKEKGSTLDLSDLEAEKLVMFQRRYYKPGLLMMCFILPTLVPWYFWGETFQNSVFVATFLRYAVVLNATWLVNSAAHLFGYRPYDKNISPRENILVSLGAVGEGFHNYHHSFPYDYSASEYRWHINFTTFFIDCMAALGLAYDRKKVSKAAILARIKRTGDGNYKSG
Description: Growth inhibition of yeast strain expressing human SCD1 as sole desaturase (OLE1 deleted), OD600 readout. The format is cell-based. As to conditions: yeast strain expressing human SCD1 as sole desaturase; growth (OD600) after 40 h at 30° C.; read-out: SCD1 IC50.

A further test concerns the target T2, human SCD5 (Homo sapiens, UniProt Q86SK9).
T2 construct: expressed in transfected cells; host or cells: yeast strain with OLE1 deleted, plasmid-borne human SCD5 (selected in SD-Ura)
T2 sequence (Q86SK9 1-330): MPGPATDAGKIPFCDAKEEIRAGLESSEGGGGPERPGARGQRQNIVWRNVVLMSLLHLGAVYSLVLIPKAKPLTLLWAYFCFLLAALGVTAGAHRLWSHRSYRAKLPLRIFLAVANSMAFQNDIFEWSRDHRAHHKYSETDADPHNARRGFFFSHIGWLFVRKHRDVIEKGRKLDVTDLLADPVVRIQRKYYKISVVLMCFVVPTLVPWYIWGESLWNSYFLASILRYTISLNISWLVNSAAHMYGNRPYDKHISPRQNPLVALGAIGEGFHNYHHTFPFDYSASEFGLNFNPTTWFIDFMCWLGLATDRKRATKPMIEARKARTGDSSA
As to the kind of experiment: Growth inhibition of yeast strain expressing human SCD5 as sole desaturase (OLE1 deleted), OD600 readout. The format is cell-based. The settings on record: yeast strain expressing human SCD5 as sole desaturase; growth (OD600) after 40 h at 30° C.; read-out: SCD5 IC50.

For the compound `CN1N=C(C(=O)Nc2ncc(C(=O)c3cccc(F)c3)s2)CCC1=O` [Compound 413], the IC50 at human SCD1 and at human SCD5 was > 45000 nM throughout.
`Cn1nc(C(=O)Nc2ccc(Cc3cc(F)cc(F)c3)cn2)cc1O` [Compound 325]: the IC50 worked out at 16400 nM at human SCD1 and 660 nM at human SCD5.
Taken in the same sequence, the figures for `Cn1nc(C(=O)Nc2ccc(Cc3cccc(F)c3)nn2)ccc1=O` [Compound 195, N-(6-(3-fluorobenzyl)pyridazin-3-yl)-1-methyl-6-oxo-1,6-dihydropyridazine-3-carboxamide] were 15900 nM and 2310 nM.
Taken in the same sequence, the figures for `O=C(Nc1ccc(Cc2ccc(F)c(F)c2)cn1)c1ccnnc1` [Compound 621] were 35 nM and 25 nM.
For `CCn1cc(C(=O)Nc2ccc(Cc3cccc(F)c3)nn2)ccc1=O` [Compound 410], in that order: > 45000 nM and > 45000 nM.
Turning to `Cn1ccc(C(=O)Nc2ccc(Cc3cccc(Cl)c3)cn2)n1` [Compound 91, N-(5-(3-chlorobenzyl)pyridin-2-yl)-1-methyl-1H-pyrazole-3-carboxamide], the IC50 on human SCD1 and at human SCD5 was 10 nM each time.
On to `CN1N=C(C(=O)Nc2ccc(Cc3cccc(C=O)c3)cn2)CCC1=O` [Compound 440], for which the IC50 on human SCD1 and on human SCD5 was > 45000 nM throughout.
For the compound `Cn1cccc(C(=O)Nc2ccc(Cc3ccc(F)c(Cl)c3)cn2)c1=O` [Compound 331], the IC50 worked out at 130 nM at human SCD1 and 10 nM at human SCD5.
As to `Cn1nc(C(=O)Nc2ccc(Oc3cccc(Cl)c3)cn2)ccc1=O` [Compound 163, N-[5-(3-chlorophenoxy)pyridin-2-yl]-1-methyl-6-oxo-1,6-dihydropyridazine-3-carboxamide], the IC50 on human SCD1 is > 45000 nM; on human SCD5, 240 nM.
Taken in the same sequence, the figures for `Cn1nccc(NC(=O)c2ccc(Cc3cccc(F)c3)cn2)c1=O` [Compound 109, 5-(3-fluorobenzyl)-N-(2-methyl-3-oxo-2,3-dihydropyridazin-4-yl)picolinamide] were 370 nM and 280 nM.
For `Cn1nc(C(=O)Nc2ccc(Cc3cccc(C(F)F)c3)cn2)ccc1=O` [Compound 561], in that order: 6700 nM and 200 nM.
`CN1N=C(C(=O)Nc2ccc(Cc3ccc(F)c(Cl)c3)nn2)CCC1=O` [Compound 192, N-(6-(3-chloro-4-fluorobenzyl)pyridazin-3-yl)-1-methyl-6-oxo-1,4,5,6-tetrahydropyridazine-3-carboxamide]: the IC50 was 11900 nM on human SCD1 and 1310 nM on human SCD5.
For `Cn1cc(C(=O)Nc2ccc(Cc3cc(F)cc(Cl)c3)cn2)cn1` [Compound 316], in that order: 10 nM and 10 nM.
For `CCn1cc(NC(=O)c2ccc(Cc3cc(F)cc(Cl)c3)cn2)ccc1=O` [Compound 79, 5-(3-Chloro-5-fluorobenzyl)-N-(1-ethyl-6-oxo-1,6-dihydropyridin-3-yl)picolinamide], in that order: 5190 nM and 10 nM.
For `Cn1cc(NCc2ccc(Cc3cccc(F)c3)cn2)ccc1=O` [Compound 352], in that order: > 45000 nM and 35500 nM.
For `CN1N=C(C(=O)Nc2ncc(Cc3cncc(Cl)c3)s2)CCC1=O` [Compound 231, N-(5-((5-chloropyridin-3-yl)methyl)thiazol-2-yl)-1-methyl-6-oxo-1,4,5,6-tetrahydropyridazine-3-carboxamide], the results for the IC50 at human SCD1 and on human SCD5 were 8930 nM and 3170 nM, respectively.
For `CNCc1ccc(C(=O)Nc2ccc(Cc3cccc(Cl)c3)cn2)cn1` [Compound 289], in that order: > 45000 nM and 9200 nM.
As to `O=C(Nc1ccc(Cc2ccc(F)c(Cl)c2)cn1)c1ccc(CO)nc1` [Compound 112, N-(5-(3-chloro-4-fluorobenzyl)pyridin-2-yl)-6-(hydroxymethyl)nicotinamide], the IC50 at human SCD1 and on human SCD5 was 10 nM in each case.
Turning to `Cn1nc(C(=O)Nc2nnc(Cc3cccc(F)c3)s2)ccc1=O` [Compound 345], the IC50 on human SCD1 was 3950 nM; on human SCD5, 2520 nM.
Taken in the same sequence, the figures for `Cn1cc(C(=O)N[C@H]2CC[C@H](Cc3cccc(Cl)c3)CC2)ccc1=O` [Compound 336] were > 45000 nM and 4270 nM.
For `Cn1nc(C(=O)Nc2ccc(C3(c4ccc(F)c(F)c4)CC3)cn2)ccc1=O` [Compound 653], in that order: > 45000 nM and 1400 nM.
Taken in the same sequence, the figures for `CN1N=C(C(=O)Nc2ncc(Cc3ccc(Cl)cc3)s2)CCC1=O` [Compound 213, N-(5-(4-chlorobenzyl)thiazol-2-yl)-1-methyl-6-oxo-1,4,5,6-tetrahydropyridazine-3-carboxamide] were 390 nM and 380 nM.
Regarding `Cn1cc(C(=O)Nc2ccc(Oc3ccc(F)c(F)c3)cn2)ccc1=O` [Compound 587], the IC50 was 17000 nM on human SCD1 and 1100 nM on human SCD5.
In the case of `Cn1cc(C(=O)Nc2nc(C#N)c(Cc3cccc(F)c3)s2)ccc1=O` [Compound 353], the IC50 at human SCD1 stood at 1940 nM; on human SCD5, 1360 nM.
For `CN1N=C(C(=O)Nc2ccc(CCc3cccc(Cl)c3)cn2)CCC1=O` [Compound 296], in that order: > 45000 nM and 860 nM.
As for `CN1N=C(C(=O)Nc2ccc(Cc3cccc(F)c3)s2)CCC1=O` [Compound 343], the values for the IC50 at human SCD1 and on human SCD5 were 3140 nM and 3420 nM, respectively.
For `CN1N=C(C(=O)Nc2ccnc(Cc3cccc(Cl)c3)c2)CCC1=O` [Compound 382], in that order: > 45000 nM and > 45000 nM.
For `Cn1nc(C(=O)Nc2ccc(COc3ccccc3)cn2)ccc1=O` [Compound 584], in that order: > 45000 nM and 1200 nM.
For the compound `CN1N=C(C(=O)Nc2ncc(Cc3ccccc3C#N)s2)CCC1=O` [Compound 380], the IC50 on human SCD1 and at human SCD5 was > 45000 nM each time.
Regarding `O=C(Nc1ccc(Cc2cccc(F)c2)cn1)c1cc(Br)sn1` [Compound 334], the IC50 on human SCD1 is > 45000 nM; on human SCD5, 9390 nM.
Taken in the same sequence, the figures for `Cn1nc(C(=O)Nc2ccc(CC3CCCCC3)cn2)cc1O` [Compound 476] were > 45000 nM and 7600 nM.
For `Cn1nc(C(=O)Nc2ccc(Cc3cc(F)c(F)c(F)c3)cn2)ccc1=O` [Example 41, 1-methyl-6-oxo-N-(5-(3,4,5-trifluorobenzyl)pyridin-2-yl)-1,6-dihydropyridazine-3-carboxamide], in that order: 190 nM and 10 nM.
Consider `CN1N=C(C(=O)Nc2ccc(Cc3ccc(Cl)c(F)c3)cn2)CCC1=O` [Compound 11, N-(5-(4-chloro-3-fluorobenzyl)pyridin-2-yl)-1-methyl-6-oxo-1,4,5,6-tetrahydropyridazine-3-carboxamide], for which the IC50 is 2740 nM on human SCD1 and 80 nM on human SCD5.
For `Cn1cc(C(=O)Nc2ccc(Oc3ccc(F)c(Cl)c3)cn2)ccc1=O` [Compound 167, N-[5-(3-chloro-4-fluorophenoxy)pyridin-2-yl]-1-methyl-6-oxo-1,6-dihydropyridine-3-carboxamide], the IC50 at human SCD1 is 25900 nM; at human SCD5, 930 nM.
Taken in the same sequence, the figures for `O=C(Nc1ccc(Cc2cccc(Cl)c2)cn1)c1ccc(Br)nc1` [Compound 299] were > 45000 nM and 3790 nM.
